Source: ChEMBL document CHEMBL6114985, “From Dyrk1A inhibitors to a novel class of antiviral agents: Targeting Enterovirus EV-A71 with 2-aryl-substituted thiophene scaffolds” (Eur J Med Chem, 2025)
pEC50: −log10 of the molar value.

Assays:
[1] = test system: Enterovirus A71; experiment: Antiviral activity against Enterovirus A71 TW/2231/98 infected in human RD cells assessed as reduction in cytopathic effect incubated for 3 days; assay type: functional, organism-based; details: Enterovirus A, TW/2231/98, RD, 72 h
[2] = Cytotoxicity against human RD cells assessed as reduction in cell growth incubated for 3 days by MTT assay; assay type: toxicity, cell-based; details: time 3 day
[3] = Selectivity index, ratio of CC50 for human RD cells to EC50 for antiviral activity against enterovirus A71 TW/2231/98 infected in human RD cells; assay type: toxicity, cell-based; details: read-out: Ratio CC50/EC50
[4] = biological target: Dual specificity tyrosine-phosphorylation-regulated kinase 1A (Homo sapiens, UniProt Q13627); experiment: Inhibition of DYRK1A (unknown origin) at 25 uM incubated for 1 hr relative to control
[5] = test system: Human rhinovirus sp.; experiment: Antiviral activity against Human rhinovirus 71803 assessed as reduction in viral replication; assay type: functional, organism-based
[6] = test system: enterovirus D68; experiment: Antiviral activity against Enterovirus D68 2795 assessed as reduction in viral replication; assay type: functional, organism-based; details: Enterovirus D
[7] = test system: Influenza A virus; experiment: Antiviral activity against influenza A virus assessed as reduction in viral replication; assay type: functional, organism-based
[8] = test system: Enterovirus A71; experiment: Antiviral activity against Enterovirus A71 4798 assessed as reduction in viral replication; assay type: functional, organism-based; details: Enterovirus A
[9] = test system: Enterovirus A71; experiment: Antiviral activity against Enterovirus A71 2231 assessed as reduction in viral replication; assay type: functional, organism-based; details: Enterovirus A
[10] = test system: enterovirus D68; experiment: Antiviral activity against Enterovirus D68 KY 18953 assessed as reduction in viral replication; assay type: functional, organism-based; details: Enterovirus D
[11] = test system: Coxsackievirus; experiment: Antiviral activity against Coxsackievirus assessed as reduction in viral replication; assay type: functional, organism-based
[12] = test system: Enterovirus A71; experiment: Antiviral activity against Enterovirus A71 TW/2231/98 infected in human RD cells assessed as inhibition of viral plaque formation at 45 uM incubated for 3 to 5 days by crystal violet staining based plaque reduction assay relative to control; assay type: functional; details: Enterovirus A, TW/2231/98, RD, time 3-5 day
[13] = Cytotoxicity against human A549 cells infected with Human adenovirus; assay type: toxicity, cell-based
[14] = Cytotoxicity against human A549 cells infected with Herpes Simplexvirus; assay type: toxicity, cell-based; details: A549 cells infected with herpes simplex virus
[15] = test system: Human adenovirus sp.; experiment: microbe, parasite or virus in culture; details: A549
[16] = test system: Herpes Simplexvirus; experiment: microbe, parasite or virus in culture; details: A549
[17] = Plasma protein binding in human by rapid equilibrium dialysis based HPLC-MS/MS analysis; assay type: ADME, cell-free; details: read-out: PPB (converted)
[18] = Metabolic stability in human liver microsome assessed as half life incubated for 120 mins by HPLC-MS/MS; assay type: ADME; details: liver microsomes
[19] = Metabolic stability in mouse liver microsome assessed as half life incubated for 120 mins by HPLC-MS/MS; assay type: ADME; details: liver microsomes
[20] = Stability in human plasma assessed as half life by HPLC-MS/MS; assay type: ADME, cell-free
[21] = Metabolic stability in mouse liver microsome assessed as intrinsic clearance incubated for 120 mins by HPLC-MS/MS; assay type: ADME; details: liver microsomes, read-out: CLH
[22] = Stability in mouse plasma assessed as half life by HPLC-MS/MS; assay type: ADME, cell-free
[23] = Metabolic stability in human liver microsome assessed as intrinsic clearance incubated for 120 mins by HPLC-MS/MS; assay type: ADME; details: liver microsomes, read-out: CLH
[24] = Lipophilicity, logD of compound by UPLC-MS analysis; assay type: physicochemical; details: octanol/water

| SMILES | pEC50 [1] | CC50 at 72 h [2] [µM] | selectivity ratio [3] | further results |
| --- | --- | --- | --- | --- |
| COc1ccc(F)c(C(=O)Nc2cncc(-c3ncns3)c2)c1 | < 5.00 | – | – | – |
| CCOC(=O)c1ccc(OCCC2CCN(c3ccc(C)nn3)CC2)cc1 [PIRODAVIR] | 6.22 | > 10 | > 16.7 | – |
| COc1ccc(F)c(C(=O)Nc2cncc(-c3cc(-c4cn[nH]c4)cs3)c2)c1 | 5.27 | 19.6 | 3.6 | – |
| O=C(Nc1cncc(-c2cc(-c3cccnc3)cs2)c1)c1ccc(O)cc1 | < 5.00 | > 10 | – | – |
| COc1ccc(F)c(C(=O)Nc2cncc(-c3cncs3)c2)c1 | < 5.00 | – | – | – |
| COc1ccc(Cl)c(C(=O)Nc2cncc(-c3cc(-c4cccnc4)cs3)c2)c1 | < 5.00 | – | – | – |
| COc1ccc(F)c(C(=O)Nc2cncc(-c3cc(-c4cccnc4)cs3)c2)c1F | 5.59 | 20 | 7.7 | inhibition [4]: 81% |
| COc1ccc(F)c(C(=O)Nc2cccc(-c3cccs3)n2)c1 | < 5.00 | – | – | – |
| COc1ccc(C(=O)Nc2cncc(-c3cc(-c4cccnc4)cs3)c2)c(F)c1 | < 5.00 | – | – | – |
| COc1ccc(F)c(C(=O)Nc2cncc(-c3cc(-c4ccncc4)cs3)c2)c1 | < 5.00 | – | – | – |
| COc1ccc(F)c(C(=O)Nc2ccnc(-c3cccs3)c2)c1 | < 5.00 | – | – | – |
| O=C(Nc1cncc(-c2cccs2)c1)c1c(F)cc(F)cc1F | 5.27 | 45.3 | 8.4 | pEC50 [5]: 5.12; pEC50 [6]: 5.30; pEC50 [7]: < 5.00; pEC50 [8]: 5.14; pEC50 [9]: 5.27; pEC50 [10]: 5.27; pEC50 [11]: 5.00 |
| COc1ccc2c(c1)[nH]c1c(C)nccc12 [HARMINE] | – | – | – | inhibition at 45 µM [12]: 40%; CC50 [13]: > 20 µM; CC50 [14]: > 20 µM; pEC50 [15]: 5.24; pEC50 [16]: 5.48 |
| COc1ccc(F)c(C(=O)Nc2cncc(-c3ccccc3)c2)c1 | < 5.00 | – | – | – |
| COc1ccc(F)c(C(=O)Nc2cncc(-c3cc(-c4cnccc4C)cs3)c2)c1 | 5.04 | 18.1 | 2 | – |
| COc1ccc(F)c(C(=O)Nc2cncc(-c3cccnc3)c2)c1 | < 5.00 | – | – | – |
| COc1cc(C(=O)Nc2cncc(-c3cc(Br)cs3)c2)ccc1C | < 5.00 | – | – | – |
| COc1cccc(C(=O)Nc2cncc(-c3cc(Br)cs3)c2)c1F | 5.05 | – | – | – |
| COc1ccc(C(=O)Nc2cncc(-c3cc(-c4cccnc4)cs3)c2)cc1F | < 5.00 | – | – | – |
| COc1ccc(F)c(C(=O)Nc2cncc(-c3cc(-c4cccnc4F)cs3)c2)c1 | 5.06 | > 100 | > 11.5 | – |
| COc1c(F)ccc(C(=O)Nc2cncc(-c3cc(-c4cccnc4)cs3)c2)c1F | < 5.00 | – | – | – |

| SMILES | pEC50 [1] | CC50 at 72 h [2] [µM] | selectivity ratio [3] | further results |
| --- | --- | --- | --- | --- |
| COc1ccc(F)c(C(=O)N(C)c2cncc(-c3cc(-c4cccnc4)cs3)c2)c1 | < 5.00 | – | – | – |
| COc1ccc(F)c(CNc2cncc(-c3cccs3)c2)c1 | < 5.00 | – | – | – |
| COc1ccc(F)c(C(=O)Nc2cncc(-c3cc(-c4cccnc4C)cs3)c2)c1 | 5.04 | 15.6 | 1.7 | – |
| COc1ccc(F)c(C(=O)Nc2cncc(-c3cc(-c4ccccc4)cs3)c2)c1 | < 5.00 | – | – | – |
| CC(C)(C)Oc1ccc(C(=O)Nc2cncc(-c3cc(-c4cccnc4)cs3)c2)cc1 | < 5.00 | – | – | – |
| COc1ccc(F)c(C(=O)Nc2cncc(-c3cn(-c4cccnc4)nn3)c2)c1 | < 5.00 | – | – | – |
| COc1ccc(C(=O)Nc2cncc(-c3cc(-c4cccnc4)cs3)c2)cc1OC | < 5.00 | – | – | – |
| COc1cc(C(=O)Nc2cncc(-c3cccs3)c2)ccc1C | < 5.00 | – | – | – |
| COc1ccc(F)c(C(=O)Nc2cncc(-c3cc(-c4cccnc4)cs3)c2)c1Cl | 5.28 | > 100 | > 19.2 | inhibition [4]: 93%; pEC50 [5]: 5.16; pEC50 [6]: 5.29; fraction unbound [17]: 0.0029; half-life [18]: 25 min; half-life [19]: 10 min; half-life [20]: > 240 min; microsomal CLint [21]: 137 µL/min/mg; pEC50 [8]: 5.40; half-life [22]: > 240 min; microsomal CLint [23]: 56 µL/min/mg; pEC50 [9]: 5.28; logD [24]: 3.22; pEC50 [10]: 5.43; pEC50 [11]: < 5.00 |
| COc1ccc(F)c(C(=O)Nc2cncc(-c3cccs3)n2)c1 | < 5.00 | – | – | – |
| COc1cc(C(=O)Nc2cncc(-c3cc(-c4cccnc4)cs3)c2)ccc1C | < 5.00 | – | – | – |
| COc1ccc(Cl)c(C(=O)Nc2cncc(-c3cc(-c4cccnc4)cs3)c2)c1F | 5.24 | > 100 | > 17.5 | inhibition [4]: 95% |
| COc1ccc(F)c(C(=O)Nc2cncc(-c3nccs3)c2)c1 | < 5.00 | – | – | – |
| COc1ccc(F)c(S(=O)(=O)Nc2cncc(-c3cccs3)c2)c1 | < 5.00 | – | – | – |
| COc1ccc(F)c(C(=O)Nc2cncc(-c3cc4ccccc4s3)c2)c1 | 5.06 | 47.3 | 5.4 | – |
| COc1ccc(F)c(C(=O)Nc2cc(-c3cccs3)ccn2)c1 | 5.62 | 33.5 | 14 | inhibition [4]: 4% |
| COc1cccc(C(=O)Nc2cncc(-c3cccs3)c2)c1F | 5.33 | 52.8 | 11.2 | – |
| COc1cc(C(=O)Nc2cncc(-c3cc(-c4cccnc4)cs3)c2)ccc1F | < 5.00 | – | – | – |
| COc1cccc(C(=O)Nc2cncc(-c3cc(-c4cccnc4)cs3)c2)c1F | 5.14 | 21.3 | 3 | – |
| COc1cc(OC)cc(C(=O)Nc2cncc(-c3cc(-c4cccnc4)cs3)c2)c1 | < 5.00 | – | – | – |
| O=C(Nc1cncc(-c2cc(-c3cccnc3)cs2)c1)c1ccc(OC(F)(F)F)cc1 | < 5.00 | – | – | – |
